Values quoted from earlier work in patent publication US9597362B2, “Use of probiotic bacteria in the treatment of infection” (TEAGASC, THE AGRICULTURE AND FOOD DEVELOPMENT AUTHORITY, priority 2003, dated 2017).

Assays:
[1] = test system: Gram-positive bacteria; conditions: including methicillin resistant staphylococci, vancomycin resistant enterococci, penicillin resistant pneumococci
[2] = test system: Salmonella typhimurium

Lacticin 3147
bactericidal spectrum [1]: kills all Gram-positive bacteria tested to date

Lactobacillus acidophilus
pathogen translocation compared with control mice ([2]; mice fed the probiotic prior to oral challenge): reduced pathogen translocation to the spleen and liver | survival ([2]; probiotic-fed groups): increased survival of mice
